# According to US20240082340A1 (Biohaven Therapeutics Ltd., priority 2021, published 2024):
# Assays:
# [1] = taken with meals; cited from earlier work
# [2] = test system: patients diagnosed with Alzheimer's disease of mild-to-moderate severity; assay: T2 Protect AD trial: CDR-Sum of Boxes; type: in vivo, human; conditions: Week 48; for CDR01-Sum of Boxes, Model Estimates, LSMean (SE) Difference: placebo vs troriluzole
# Description: The CDR-SOB (Hughes, Berg, Danziger, Coben, & Martin, 1982) is a validated composite rating of cognition and everyday functioning used in longitudinal AD research which incorporates both informant input and direct assessment of performance. It assesses through semi structured interview 3 cognitive domains including memory, orientation, and judgement/problem solving and 3 everyday functional domains including community affairs, home and hobbies and personal care. There are 5 levels of impairment from none CDR=0 to severe CDR=3. The individual domain scores are added to create a sum of the box scores.
# (§1) The T2 Protect AD trial has been conducted, which is a Phase 2/3, randomized, double-blind, placebo-controlled study evaluating the efficacy and safety of troriluzole in patients diagnosed with Alzheimer's disease of mild-to-moderate severity (Mini-Mental State Examination [MMSE] scores of 14-24; mild: 20-24, moderate: 14-19).
# [3] = test system: patients diagnosed with Alzheimer's disease of mild-to-moderate severity; assay: T2 Protect AD trial: Neuropsychiatric Inventory (NPI); type: in vivo, human; conditions: for NPI score LS mean change, difference versus placebo: after 48 weeks, troriluzole minus placebo
# Description: The NPI is a well-validated, reliable, multi-item instrument to assess psychopathology in AD dementia based on the results of an interview with the study partner (Cummings, 1997). The NPI evaluates both the frequency and severity of 10 neuropsychiatric features, including delusions, hallucinations, agitation/aggression, dysphoria, anxiety, euphoria, apathy, disinhibition, irritability and lability, and aberrant motor behavior, as well as evaluates sleep and appetite/eating disorders. Frequency assessments range from 1 (occasionally, less than once per week) to 4 (very frequently, once or more per day or continuously). Severity assessments range from 1 (mild) to 3 (severe). The score for each subscale is the product of severity and frequency and the total score is the sum of all subscales.
# as §1
# [4] = test system: patients diagnosed with Alzheimer's disease of mild-to-moderate severity; assay: T2 Protect AD trial: volumetric MRI hippocampal volume (Quarc); type: in vivo, human; conditions: for Hippocampal Volume Change, Model Estimates, LSMean (SE) Difference: Week 48, placebo vs troriluzole
# Description: vMRI allows the in vivo assessment of brain structure volume and provides a measure of atrophy rate. […] Atrophy of the medial temporal lobe, including hippocampus and entorhinal cortex, has long been described in vMRI studies of AD. Hippocampal volume derived from MRI correlates with histological hippocampal volume and degree of neuronal loss and AD pathology, and entorhinal cortical thickness change appears to be an early and sensitive indicator of neurodegeneration associated with AD (Holland et al., 2009; Jack et al., 2004).
# Participants will undergo vMRI scans of the brain at screening, week 24 and week 48 in order to assess for changes in brain volumes that may be associated with clinical change due to treatment with BHV-4157.
# Volumetric MRI scans will use the same imaging protocol, which will include a localizer scan, a 3D T1-weighted sagittal acquisition (MPRAGE or IR-SPGR), a T2-weighted FLAIR axial acquisition, a T2* gradient recalled echo axial acquisition for magnetic susceptibility, and a diffusion weighted axial acquisition to assess for restricted diffusion.
# Images will be checked for image quality and adherence to scanning protocols. 3D T1-weighted datasets passing quality checks will be corrected for spatial distortion and for intensity variation. Screening and follow-up datasets for each participant will be spatially registered to one another using rigid-body registration followed by nonlinear registration and neuroanatomic parcellation to quantify whole-brain and subregional volumetric change on a patient-by patient basis.
# Whole brain volume (WBV, excluding cerebellum), bilateral ventricular volume and bilateral hippocampal volume will be measured. Quantitative anatomical regional change (Quarc) will be used as the computational MR image processing application. Detail for the statistical computations is given in the Statistical Analytical Plan (SAP).
# as §1
# [5] = test system: patients diagnosed with Alzheimer's disease of mild-to-moderate severity; assay: T2 Protect AD trial: ADAS-Cog 11; type: in vivo, human; conditions: for ADAS-Cog Total Score, Model Estimates, LSMean (SE): change from baseline; for ADAS-Cog Total Score, Model Estimates, LSMean (SE) Difference: placebo vs troriluzole
# Description: (§2) The ADAS-Cog 11 evaluates memory (word recall, word recognition), reasoning (following commands), language (naming, comprehension), orientation, ideational praxis (placing a letter in an envelope) and constructional praxis (copying geometric designs). Ratings of spoken language, language comprehension, word finding difficulty, and ability to remember test instructions are also obtained. The test is scored in terms of errors, with higher scores reflecting poorer performance and greater impairment. Scores can range from 0 (best) to 70 (worse).
# The primary efficacy endpoint is the within-participant change in ADAS-Cog 11 from baseline to week 48, compared between the treatment group and the placebo group.
# as §2, with “11 (Rosen, Mohs, & Davis, 1984) is a structured scale that” for “11”
# as §1
# [6] = after 48 weeks, mild AD, placebo minus troriluzole
# [7] = Week 48, mild-to-moderate AD, 280 mg once daily
smiles,measurement,setting,value
"Nc1nc2ccc(OC(F)(F)F)cc2s1 [Riluzole, riluzole]",food effect on exposure,[1],reduced exposure when taken with meals
"CN(CC(=O)Nc1nc2ccc(OC(F)(F)F)cc2s1)C(=O)CNC(=O)CN [Troriluzole, troriluzole]",outcome on co-primary endpoint CDR-SB,[2]; mild-to-moderate AD,did not meet the study's pre-specified co-primary endpoints
same,"CDR01-Sum of Boxes, Model Estimates, LSMean (SE) Difference",[2]; mild AD patients only,−0.3 (0.40)
same,"CDR01-Sum of Boxes, Model Estimates, LSMean (SE) Difference",[2]; mild-to-moderate AD,−0.2 (0.28)
same,NPI across subgroups versus placebo,"[3]; Week 48, only mild AD, only moderate AD, only ApoE4 positive, only ApoE4 negative patients",numerical differences of a potential benefit
same,"NPI score LS mean change, difference versus placebo",[3]; mild AD,−2.1 points
same,"NPI score LS mean change, difference versus placebo",[3]; mild-to-moderate AD,−1.5 points
same,"Hippocampal Volume Change, Model Estimates, LSMean (SE) Difference",[4]; mild AD patients only,−0.5 (0.38)
same,"Hippocampal Volume Change, Model Estimates, LSMean (SE) Difference",[4]; mild-to-moderate AD,0.0 (0.26)
same,"hippocampal volume LS mean percent deformation change, difference versus placebo",[4]; [6],−0.5%
same,"key secondary measure of hippocampal volume assessed by MRI, versus placebo",[4]; overall population,did not differentiate from placebo
same,"ADAS-Cog Total Score, Model Estimates, LSMean (SE)","[5]; Week 48, mild AD patients only",4.2
same,"ADAS-Cog Total Score, Model Estimates, LSMean (SE)",[5]; [7],6.7 (0.70)
same,"ADAS-Cog Total Score, Change from Baseline, Mean (SD)","[5]; Week 48, mild AD patients only",3.9
same,"ADAS-Cog Total Score, Analysis Value, Mean (SD)","[5]; Week 48, mild AD patients only, 280 mg once daily",26.2
same,outcome on co-primary endpoint ADAS-cog,"[5]; Week 48, mild-to-moderate AD",did not meet the study's pre-specified co-primary endpoints
same,"ADAS-Cog Total Score, Change from Baseline, Mean (SD)",[5]; [7],5.8 (7.40)
same,"ADAS-Cog Total Score, Change from Baseline, Median",[5]; [7],6.0
same,"ADAS-Cog Total Score, Model Estimates, LSMean (SE) Difference","[5]; Week 48, mild AD patients only",0.7 (1.02)
same,"ADAS-Cog Total Score, Model Estimates, LSMean (SE) Difference","[5]; Week 48, mild-to-moderate AD",0.0 (0.93)
same,"ADAS-Cog11 score LS mean change, difference versus placebo",[5]; [6],0.7 points
